IC50 data for ten compounds are collected here from patent publication US12780800B1, “Triazole-pyridinyl substituted azacyclohexyl acetic acid compounds as LPA receptor antagonists” (Viva Star Biosciences Limited, priority 2021, dated 2022).

Some results are limits rather than exact numbers.

T1 sequence (Q92633 whole entry, the tested form may be a part): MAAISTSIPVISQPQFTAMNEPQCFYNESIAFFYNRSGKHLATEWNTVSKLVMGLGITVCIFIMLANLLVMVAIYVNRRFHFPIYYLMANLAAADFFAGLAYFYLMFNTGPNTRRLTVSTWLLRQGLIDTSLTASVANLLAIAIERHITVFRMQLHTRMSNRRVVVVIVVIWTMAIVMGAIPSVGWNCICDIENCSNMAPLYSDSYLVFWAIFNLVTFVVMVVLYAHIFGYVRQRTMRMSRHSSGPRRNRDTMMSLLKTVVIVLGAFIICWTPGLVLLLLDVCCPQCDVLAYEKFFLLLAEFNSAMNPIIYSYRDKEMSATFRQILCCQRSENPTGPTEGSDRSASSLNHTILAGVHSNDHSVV

This assay addresses T1, LPA1 (Homo sapiens, UniProt Q92633).
T1 construct: ProLink (PK) beta-galactosidase enzyme-fragment tag; host or cells: CHO-K1
The assay can be described thus: LPA1 calcium flux assay (LPA1 functional antagonist assay). It is filed as cell-based. As to conditions: PathHunter CHO-K1 EDG2 β-Arrestin cell line; calcium indicator dye; stimulated with EC80 concentration of LPA; FLIPR Tetra. A digest of the protocol:
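The LPA1 antagonist readout was intracellular calcium flux, and IC50 values were calculated from it. Plates stood 30 min at RT after compound addition. Cells, grown overnight, had first taken up calcium dye over 45 min at 37 °C.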
In general, IC50 refers to the concentration that inhibits the measured activity by half. With `CCc1nc(-c2nnn(C)c2COc2nnn(CC(C)C)n2)ccc1N1C[C@@H](CC(=O)O)CC(F)(F)C1` [Example 124, (S)-2-(1-(2-ethyl-6-(5-(((2-isobutyl-2H-tetrazol-5-yl)oxy)methyl)-1-methyl-1H-1,2,3-triazol-4-yl)pyridin-3-yl)-5,5-difluoropiperidin-3-yl)acetic acid], the half-maximal inhibitory concentration (IC50) is below 100 nM.
The result for `CCc1nc(-c2nnn(C)c2COc2nnn(CC3CC3)n2)ccc1N1C[C@@H](CC(=O)O)CC(F)(F)C1` [Example 125, (S)-2-(1-(6-(5-(((2-(cyclopropylmethyl)-2H-tetrazol-5-yl)oxy)methyl)-1-methyl-1H-1,2,3-triazol-4-yl)-2-ethylpyridin-3-yl)-5,5-difluoropiperidin-3-yl)acetic acid] reads below 100 nM.
For the compound `CCc1nc(-c2nnn(C)c2COc2cn(CC3CC3)nn2)ccc1N1C[C@@H](CC(=O)O)CC(F)(F)C1` [Example 126, (S)-2-(1-(6-(5-(((1-(cyclopropylmethyl)-1H-1,2,3-triazol-4-yl)oxy)methyl)-1-methyl-1H-1,2,3-triazol-4-yl)-2-ethylpyridin-3-yl)-5,5-difluoropiperidin-3-yl)acetic acid], the half-maximal inhibitory concentration (IC50) was in the range of 100 to 500 nM.
The result for `CCc1nc(-c2nnn(C)c2COc2cnn(CC3CC3)n2)ccc1N1C[C@@H](CC(=O)O)CC(F)(F)C1` [Example 127] reads 100 to 500 nM; that for `CCc1nc(-c2nnn(C)c2COc2cn(CC(C)C)nn2)ccc1N1C[C@@H](CC(=O)O)CC(F)(F)C1` [Example 128, (S)-2-(1-(2-ethyl-6-(5-(((1-isobutyl-1H-1,2,3-triazol-4-yl)oxy)methyl)-1-methyl-1H-1,2,3-triazol-4-yl)pyridin-3-yl)-5,5-difluoropiperidin-3-yl)acetic acid], 100 to 500 nM; that for `CCc1nc(-c2nnn(C)c2COc2cnn(CC(C)C)n2)ccc1N1C[C@@H](CC(=O)O)CC(F)(F)C1` [Example 129, (S)-2-(1-(2-ethyl-6-(5-(((2-isobutyl-2H-1,2,3-triazol-4-yl)oxy)methyl)-1-methyl-1H-1,2,3-triazol-4-yl)pyridin-3-yl)-5,5-difluoropiperidin-3-yl)acetic acid], below 100 nM.
Next, `CCc1nc(-c2nnn(C)c2Cn2ncc(CC3CC3)n2)ccc1N1C[C@@H](CC(=O)O)CC(F)(F)C1` [Example 130, (S)-2-(1-(6-(5-((4-(cyclopropylmethyl)-2H-1,2,3-triazol-2-yl)methyl)-1-methyl-1H-1,2,3-triazol-4-yl)-2-ethylpyridin-3-yl)-5,5-difluoropiperidin-3-yl)acetic acid]: below 100 nM.
As for `CCc1nc(-c2nnn(C)c2Cn2cc(CC3CC3)nn2)ccc1N1C[C@@H](CC(=O)O)CC(F)(F)C1` [Example 131, (S)-2-(1-(6-(5-((4-(cyclopropylmethyl)-1H-1,2,3-triazol-1-yl)methyl)-1-methyl-1H-1,2,3-triazol-4-yl)-2-ethylpyridin-3-yl)-5,5-difluoropiperidin-3-yl)acetic acid], the IC50 was in the range of 100 to 500 nM.
The result for `CCc1nc(-c2nnn(C)c2Cn2nncc2CC2CC2)ccc1N1C[C@@H](CC(=O)O)CC(F)(F)C1` [Example 132, (S)-2-(1-(6-(5-((5-(cyclopropylmethyl)-1H-1,2,3-triazol-1-yl)methyl)-1-methyl-1H-1,2,3-triazol-4-yl)-2-ethylpyridin-3-yl)-5,5-difluoropiperidin-3-yl)acetic acid] reads below 100 nM; that for `Cc1nc(-c2nnn(C)c2Cn2cc(CC3CC3)nn2)ccc1N1C[C@@H](CC(=O)O)CC(F)(F)C1` [Example 133, (S)-2-(1-(6-(5-((4-(cyclopropylmethyl)-1H-1,2,3-triazol-1-yl)methyl)-1-methyl-1H-1,2,3-triazol-4-yl)-2-methylpyridin-3-yl)-5,5-difluoropiperidin-3-yl)acetic acid], 100 to 500 nM.
